A word on the IC50: it is the midpoint of a concentration-inhibition curve.

The assay concerns the target T1, HIV-integrase (Human immunodeficiency virus type 1 group M subtype B, UniProt P12497).
T1 construct: Recombinant integrase (0.26 ng) was incubated with the beads
Put plainly: HIV-Integrase Inhibition Activity (SPA bead strand-transfer assay). The class given is biochemical. The following applies: Table 1; read-out: Activity (HIV-integrase inhibition, IC50 class). The method, boiled down: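 Biotin-labelled substrate DNA (5 pmole) bound to streptavidin SPA beads, preloaded with recombinant integrase (0.26 ng) for 90 min at 37° C, then washed. Inhibitors and 0.1 fmol P33-labelled target DNA added; reaction stopped with 10 mM EDTA. Integration read as scintillation CPM.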
Consider `COc1ncc(-c2ccccc2CNC(=O)c2nc3n(c(=O)c2O)CCOC3(C)C)c(OC)n1` [Example 149, Pyrimido[2,1-c][1,4]oxazine-2-carboxamide, N-[[2-(2,4-dimethoxy-5-pyrimidinyl)phenyl]methyl]-4,6,7,9-tetrahydro-3-hydroxy-9,9-dimethyl-4-oxo-], for which the half-maximal inhibitory concentration (IC50) was 2 to 100 nM.

`CC1(C)OCCn2c1nc(C(=O)NCc1ccccc1-c1cccnc1)c(O)c2=O` [Example 150, Pyrimido[2,1-c][1,4]oxazine-2-carboxamide, 4,6,7,9-tetrahydro-3-hydroxy-9,9-dimethyl-4-oxo-N-[[2-(3-pyridinyl)phenyl]methyl]-]: the concentration for half-maximal inhibition (IC50) fell in the range of 2 to 100 nM.

`CC1(C)OCCn2c1nc(C(=O)NCc1ccccc1-c1ccc(F)nc1)c(O)c2=O` [Example 151]: the half-inhibitory concentration (IC50) was 2 to 100 nM.

For the compound `COc1ncccc1-c1ccccc1CNC(=O)c1nc2n(c(=O)c1O)CCOC2(C)C` [Example 152, Pyrimido[2,1-c][1,4]oxazine-2-carboxamide, 4,6,7,9-tetrahydro-3-hydroxy-N-[[2-(2-methoxy-3-pyridinyl)phenyl]methyl]-9,9-dimethyl-4-oxo-], the IC50 was in the range of 2 to 100 nM.

As for `COc1cncc(-c2ccccc2CNC(=O)c2nc3n(c(=O)c2O)CCOC3(C)C)c1` [Example 153, Pyrimido[2,1-c][1,4]oxazine-2-carboxamide, 4,6,7,9-tetrahydro-3-hydroxy-N-[[2-(5-methoxy-3-pyridinyl)phenyl]methyl]-9,9-dimethyl-4-oxo-], the IC50 was in the range of 2 to 100 nM.

Regarding `COc1ccc(-c2ccccc2CNC(=O)c2nc3n(c(=O)c2O)CCOC3(C)C)c(OC)n1` [Example 154, Pyrimido[2,1-c][1,4]oxazine-2-carboxamide, N-[[2-(2,6-dimethoxy-3-pyridinyl)phenyl]methyl]-4,6,7,9-tetrahydro-3-hydroxy-9,9-dimethyl-4-oxo-], the concentration for half-maximal inhibition (IC50) lay in the range of 2 to 100 nM.

For `CC1(C)OCCn2c1nc(C(=O)NCc1ccccc1-c1cnn(Cc3ccccc3)c1)c(O)c2=O` [Example 155, Pyrimido[2,1-c][1,4]oxazine-2-carboxamide, 4,6,7,9-tetrahydro-3-hydroxy-9,9-dimethyl-4-oxo-N-[[2-[1-(phenylmethyl)-1H-pyrazol-4-yl]phenyl]methyl]-], the IC50 lay within 2 to 100 nM.

Regarding `CC1(C)OCCn2c1nc(C(=O)NCc1ccccc1-c1ccc(N3CCOCC3)nc1)c(O)c2=O` [Example 156, Pyrimido[2,1-c][1,4]oxazine-2-carboxamide, 4,6,7,9-tetrahydro-3-hydroxy-9,9-dimethyl-N-[[2-[6-(4-morpholinyl)-3-pyridinyl]phenyl]methyl]-4-oxo-], the 50% inhibitory concentration (IC50) was in the range of 2 to 100 nM.

Consider `CC1(C)OCCn2c1nc(C(=O)NCc1ccccc1-c1ccc(N)nc1)c(O)c2=O` [Example 157, Pyrimido[2,1-c][1,4]oxazine-2-carboxamide, N-[[2-(6-amino-3-pyridinyl)phenyl]methyl]-4,6,7,9-tetrahydro-3-hydroxy-9,9-dimethyl-4-oxo-], for which the IC50 lay in the range of 2 to 100 nM.

`CCCn1cc(-c2ccccc2CNC(=O)c2nc3n(c(=O)c2O)CCOC3(C)C)cn1` [Example 158, Pyrimido[2,1-c][1,4]oxazine-2-carboxamide, 4,6,7,9-tetrahydro-3-hydroxy-9,9-dimethyl-4-oxo-N-[[2-(1-propyl-1H-pyrazol-4-yl)phenyl]methyl]-]: the IC50 is 2 to 100 nM.

For `CN1CCN(c2cc(-c3ccccc3CNC(=O)c3nc4n(c(=O)c3O)CCOC4(C)C)ccn2)CC1` [Example 159, Pyrimido[2,1-c][1,4]oxazine-2-carboxamide, 4,6,7,9-tetrahydro-3-hydroxy-9,9-dimethyl-N-[[2-[2-(4-methyl-1-piperazinyl)-4-pyridinyl]phenyl]methyl]-4-oxo-], the half-maximal inhibitory concentration (IC50) fell in the range of 100 to 1000 nM.

In the case of `CC1(C)OCCn2c1nc(C(=O)NCc1ccccc1-c1ccccc1)c(O)c2=O` [Example 160, Pyrimido [2,1-c][1,4]oxazine-2-carboxamide, N-([1,1′-biphenyl]-2-ylmethyl)-4,6,7,9-tetrahydro-3-hydroxy-9,9-dimethyl-4-oxo-], the IC50 lay within 2 to 100 nM.

`COc1cc(Cl)ccc1-c1ccccc1CNC(=O)c1nc2n(c(=O)c1O)CCOC2(C)C` [Example 161, Pyrimido[2,1-c][1,4]oxazine-2-carboxamide, N-[(4′-chloro-2′-methoxy[1,1′-biphenyl]-2-yl)methyl]-4,6,7,9-tetrahydro-3-hydroxy-9,9-dimethyl-4-oxo-]: the IC50 lay in the range of 2 to 100 nM.

With `Cc1ccc(-c2ccccc2CNC(=O)c2nc3n(c(=O)c2O)CCOC3(C)C)cc1` [Example 162, Pyrimido[2,1-c][1,4]oxazine-2-carboxamide, 4,6,7,9-tetrahydro-3-hydroxy-9,9-dimethyl-N-[(4′-methyl[1,1′-biphenyl]-2-yl)methyl]-4-oxo-], the concentration for half-maximal inhibition (IC50) fell in the range of 2 to 100 nM.

For `Cc1cccc(-c2ccccc2CNC(=O)c2nc3n(c(=O)c2O)CCOC3(C)C)c1` [Example 163, Pyrimido[2,1-c][1,4]oxazine-2-carboxamide, 4,6,7,9-tetrahydro-3-hydroxy-9,9-dimethyl-N-[(3′-methyl[1,1′-biphenyl]-2-yl)methyl]-4-oxo-], the half-maximal inhibitory concentration (IC50) was 2 to 100 nM.

On to `COc1cccc(-c2ccccc2CNC(=O)c2nc3n(c(=O)c2O)CCOC3(C)C)c1` [Example 164, Pyrimido[2,1-c][1,4]oxazine-2-carboxamide, 4,6,7,9-tetrahydro-3-hydroxy-N-[(3′-methoxy[1,1′-biphenyl]-2-yl)methyl]-9,9-dimethyl-4-oxo-], for which the IC50 was in the range of 2 to 100 nM.

As for `CC1(C)OCCn2c1nc(C(=O)NCc1ccccc1-c1cccc(O)c1)c(O)c2=O` [Example 165, Pyrimido[2,1-c][1,4]oxazine-2-carboxamide, 4,6,7,9-tetrahydro-3-hydroxy-N-[(3′-hydroxy[1,1′-biphenyl]-2-yl)methyl]-9,9-dimethyl-4-oxo-], the half-maximal inhibitory concentration (IC50) fell in the range of 2 to 100 nM.

Consider `CC1(C)OCCn2c1nc(C(=O)NCc1ccccc1-c1ccc(C#N)cc1)c(O)c2=O` [Example 166, Pyrimido[2,1-c][1,4]oxazine-2-carboxamide, N-[(4′-cyano[1,1′-biphenyl]-2-yl)methyl]-4,6,7,9-tetrahydro-3-hydroxy-9,9-dimethyl-4-oxo-], for which the half-maximal inhibitory concentration (IC50) fell in the range of 100 to 1000 nM.

As for `CC1(C)OCCn2c1nc(C(=O)NCc1ccccc1-c1cccc(C#N)c1)c(O)c2=O` [Example 167, Pyrimido[2,1-c][1,4]oxazine-2-carboxamide, N-[(3′-cyano[1,1′-biphenyl]-2-yl)methyl]-4,6,7,9-tetrahydro-3-hydroxy-9,9-dimethyl-4-oxo-], the IC50 fell in the range of 2 to 100 nM.

With `CC1(C)OCCn2c1nc(C(=O)NCc1ccccc1-c1ccc(N3CCOCC3)cc1)c(O)c2=O` [Example 168, Pyrimido[2,1-c][1,4]oxazine-2-carboxamide, 4,6,7,9-tetrahydro-3-hydroxy-9,9-dimethyl-N-[[4′-(4-morpholinyl)[1,1′-biphenyl]-2-yl]methyl]-4-oxo-], the IC50 lay in the range of 2 to 100 nM.

In the case of `CC1(C)OCCn2c1nc(C(=O)NCc1ccccc1-c1ccc(CN)cc1)c(O)c2=O` [Example 169], the concentration for half-maximal inhibition (IC50) lay in the range of 2 to 100 nM.

On to `CN(C)C(=O)c1ccc(-c2ccccc2CNC(=O)c2nc3n(c(=O)c2O)CCOC3(C)C)cc1` [Example 170, Pyrimido[2,1-c][1,4]oxazine-2-carboxamide, N-[[4′-[(dimethylamino)carbonyl][1,1′-biphenyl]-2-yl]methyl]-4,6,7,9-tetrahydro-3-hydroxy-9,9-dimethyl-4-oxo-], for which the IC50 was 2 to 100 nM.

On to `CN(C)C(=O)c1cccc(-c2ccccc2CNC(=O)c2nc3n(c(=O)c2O)CCOC3(C)C)c1` [Example 171], for which the concentration for half-maximal inhibition (IC50) fell in the range of 2 to 100 nM.

Source of the values: patent publication US7491819B1 (priority 2004, dated 2009).
